Results reported in publication PMC6155831, “Promising Inhibitory Effects of Anthraquinones, Naphthopyrone, and Naphthalene Glycosides, from Cassia obtusifolia on α-Glucosidase and Human Protein Tyrosine Phosphatases 1B” (Molecules : A Journal of Synthetic Chemistry and Natural …, 2016).

Columns and labels:
[1] = target: Yeast α-glucosidase; assay: α-Glucosidase inhibitory assay with pNPG as substrate; format: biochemical; settings: test concentration up to 400 µg/mL in 10% DMSO, triplicate
Method: Enzyme inhibition assays were carried out spectrophotometrically using a procedure reported by Li et al.. A 60 μL reaction mixture containing 20 μL of 100 mM phosphate buffer (pH 6.8), 20 μL of 2.5 mM pNPG, and 20 μL of sample (test concentration up to 400 μg/ml for compounds) dissolved in 10% DMSO was added to each well, followed by the addition of 20 μL of α-glucosidase (0.2 U/mL in 10 mM phosphate buffer (pH 6.8)). The plate was incubated at 37 °C for 15 min, and then 80 μL of 0.2 M sodium carbonate solution was added to stop the reaction. Right after that, the absorbance was recorded at 405 nm using a VERSA max microplate reader (Molecular Devices, Sunnyvale, CA, USA). The control contained the same reaction mixture with the same volume of phosphate buffer instead of sample solution. […] The percent inhibition (%) was obtained using the following equation: % Inhibition = (Ac − As)/Ac × 100, where Ac is the absorbance of the control, and As is the absorbance of the sample.

[2] = target: T1, PTP1B (human recombinant) (Homo sapiens, UniProt P18031); assay: Protein tyrosine phosphatase 1B (PTP1B) inhibition assay with pNPP as substrate; format: biochemical; settings: pNPP substrate, test concentration up to 100 µg/mL in 10% DMSO, triplicate; for IC50: read-out: PTP1B IC50 (Mean ± SEM) (converted)
T1 construct: purchased Biomol International LP (Plymouth Meeting, PA, USA)
T1 sequence (P18031 1-435): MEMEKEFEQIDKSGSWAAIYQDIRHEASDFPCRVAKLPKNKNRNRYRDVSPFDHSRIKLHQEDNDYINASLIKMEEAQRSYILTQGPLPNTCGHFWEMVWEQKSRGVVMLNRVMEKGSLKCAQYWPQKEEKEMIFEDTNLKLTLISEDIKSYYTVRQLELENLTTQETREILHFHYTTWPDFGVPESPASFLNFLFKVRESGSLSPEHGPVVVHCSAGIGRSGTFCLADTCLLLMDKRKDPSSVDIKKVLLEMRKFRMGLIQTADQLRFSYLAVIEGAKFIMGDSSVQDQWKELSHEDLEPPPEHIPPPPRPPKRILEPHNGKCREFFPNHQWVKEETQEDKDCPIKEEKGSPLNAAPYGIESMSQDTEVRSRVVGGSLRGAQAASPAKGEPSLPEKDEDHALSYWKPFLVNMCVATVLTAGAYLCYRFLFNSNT
Method: The PTP1B inhibitory activities were evaluated using p-nitrophenyl phosphate as the substrate (pNPP) in a procedure reported by Cui et al.. Each well of a 96-well plate (final volume 100 μL) contained were 40 μL of PTP1B enzyme (0.5 units diluted with a PTP1B reaction buffer containing 50 mM citrate (pH 6.0), 0.1 M NaCl, 1 mM EDTA, and 1 mM dithiotheritol (DTT)), to which sample (test concentration up to 100 μg/mL) dissolved in 10% DMSO was or was not added. The plate was pre-incubated at 37 °C for 10 min, and then 50 μL of 2 mM pNPP in PTP1B reaction buffer was added. Following incubation at 37 °C for 30 min, the reaction was terminated with the addition of 10 M NaOH. The amounts of p-nitrophenyl produced after enzymatic dephosphorylation from pNPP was estimated by measuring the absorbance at 405 nm using microplate spectrophotometer (Molecular Devices). The non-enzymatic hydrolysis of 2 mM pNPP was corrected by measuring the increase in absorbance at 405 nm obtained in the absence of PTP1B enzyme. The percent inhibition (%) was obtained by the following equation: % inhibition = (Ac − As)/Ac × 100, where Ac is the absorbance of the control, and As is the absorbance of the sample.

[3] = test system: insulin-resistant HepG2 cells; assay: 2-NBDG glucose uptake assay in insulin-resistant HepG2 cells; format: cell-based, human
Method: The HepG2 (human hepatocarcinoma) cell line was purchased from the American Type Culture Collection (HB-8065, Manassas, VA, USA). Cells were maintained in MEM containing 2.0 mM L-glutamine, 0.1 mM non-essential amino acids, 1.0 mM sodium pyruvate, and 10% FBS at 37 °C in a humidified atmosphere with 5% CO2. The medium was changed every 48 h. […] The establishment of an insulin-resistant HepG2 cell model and glucose uptake was performed according to the reported method, with slight modifications. Briefly, HepG2 cells were cultured in 96-well cluster plates. After reaching confluence, the cells were treated with 10^−6 mol/L insulin for 24 h to induce insulin resistance. […] After this incubation, the 2-NBDG uptake in insulin-resistant HepG2 cells was measured. The cells were incubated with 40 μM 2-NBDG for 30 min. To stop the response, cells were washed with ice-cold PBS and the fluorescence intensity of 2-NBDG was measured on a Synergy HT microplate reader (BioTek Instruments, Winooski, VT, USA) at 485 nm excitation and 528 nm emission. Six replicate wells were established and each experiment was repeated three times.

[4] = test system: PTP1B; design: method as in earlier work; settings: cited from earlier work
[5] = test system: α-glucosidase; design: method as in doi:10.1007/s10600-012-0275-4, PMID 25142941; settings: from the EtOAc fraction of the methanolic extract of C. obtusifolia; cited from earlier work
[6] = test system: HepG2 cells; assay: MTT cytotoxicity assay on HepG2 cells; settings: human, 24 h
Method: Before determining the insulin resistance of alaternin and emodin, the cytotoxicity of alaternin and emodin on HepG2 cells was first measured by the MTT assay. […] To investigate the ability of alaternin and emodin to increase glucose uptake, a 2-[N-(7-nitrobenz-2-oxa-1,3-diazol-4-yl) amino]-2-deoxy-D-glucose (2-NBDG) uptake assay was performed with insulin-resistant HepG2 cells.

Row | Compound | α-Glucosidase IC50 (Mean ± SEM) [1] [µg/mL] | PTP1B IC50 (Mean ± SEM) [2] [µg/mL] | IC50 [2] [µM] | also measured
1 | COc1cc2c(c(O)c1OC)C(=O)c1c(cc(C)c(O)c1OC)C2=O [Obtusin] | 20.92 ± 0.41 | 6.44 ± 0.22 | – | –
2 | CN(C)C(=N)N=C(N)N [metformin, reference compound] | – | – | – | insulin-stimulated glucose uptake ([3]; metformin 10 μM, positive control): significantly increased
3 | Cc1cc(O)c2c(c1)C(=O)c1cccc(O)c1C2=O [Chrysophanol] | 46.81 ± 0.12 | – | 23 | PTP1B inhibition (previous reports) [4]: inhibited PTP1B
4 | COc1cc(C)cc2c1C(=O)c1c(O)cc(O)cc1C2=O [1-O-methylemodin] | – | – | – | α-glucosidase inhibitory activity (reported) [5]: inactive
5 | COc1c(O[C@@H]2O[C@H](CO)[C@@H](O)[C@H](O)[C@H]2O)cc2c(c1O)C(=O)c1c(cc(C)c(O)c1OC)C2=O [Gluco-aurantio obtusin] | 142.19 ± 1.22 | 31.30 ± 0.97 | – | –
6 | COc1cc2c(c(OC)c1OC)C(=O)c1c(cc(C)c(O)c1OC)C2=O [Chryso-obtusin] | 36.01 ± 0.89 | – | 41.5 | α-glucosidase inhibitory activity (reported) [5]: α-glucosidase inhibitors
7 | COc1cc2c(c(OC)c1OC)C(=O)c1c(cc(C)c(O[C@@H]3O[C@H](CO)[C@@H](O)[C@H](O)[C@H]3O)c1OC)C2=O [Chryso-obtusin-2-glucoside, chryso-obtusin-2-O-β-D-glucoside] | 178.85 ± 0.55 | 39.34 ± 1.07 | – | –
8 | Toralactone gentiobioside | 37.60 ± 0.79 | 81.15 ± 0.15 | – | –
9 | COc1c(O)cc2c(c1O)C(=O)c1c(cc(C)c(O)c1OC)C2=O [Aurantio-obtusin] | 41.20 ± 0.17 | – | 82.3 | α-glucosidase inhibitory activity (reported) [5]: inactive
10 | Cassiaside | 129.23 ± 0.98 | 48.55 ± 1.27 | – | –
11 | COc1cc(O)c2c(c1)C(=O)c1cc(C)cc(O)c1C2=O [Physcion] | 2.38 ± 0.77 | – | 25.6 | α-glucosidase inhibitory activity (reported) [5]: α-glucosidase inhibitors; PTP1B inhibition (previous reports) [4]: inhibited PTP1B
12 | COc1c(O)c(C)cc2c1C(=O)c1c(O)cccc1C2=O [Obtusifolin] | 142.12 ± 0.77 | – | 124 | α-glucosidase inhibitory activity (reported) [5]: inactive
13 | Cassitoroside | 172.59 ± 0.74 | – | – | –
14 | COc1c(O)c(O)cc2c1C(=O)c1c(O)cc(C)cc1C2=O [2-Hydroxyemodin-1 methylether] | 5.65 ± 0.20 | 5.22 ± 0.29 | – | –
15 | Cc1cc(O[C@@H]2O[C@H](CO[C@@H]3O[C@H](CO)[C@@H](O)[C@H](O[C@@H]4O[C@H](CO)[C@@H](O)[C@H](O)[C@H]4O)[C@H]3O)[C@@H](O)[C@H](O)[C@H]2O)c2c(c1)C(=O)c1cccc(O)c1C2=O [Chrysophanol triglucoside] | 197.06 ± 1.09 | 80.17 ± 1.77 | – | –
16 | O=C1c2cccc(O)c2C(=O)c2c(O)cc(CO)cc21 [Aloe-emodin] | 1.40 ± 0.27 | – | 207 | –
17 | COc1cc(O)cc2c1C(=O)c1c(O)cc(C)cc1C2=O [Questin] | 136.19 ± 0.01 | – | 20 | –
18 | Cc1cc(O[C@@H]2O[C@H](CO[C@@H]3O[C@H](CO)[C@@H](O)[C@H](O[C@@H]4O[C@H](CO[C@@H]5O[C@H](CO)[C@@H](O)[C@H](O)[C@H]5O)[C@@H](O)[C@H](O)[C@H]4O)[C@H]3O)[C@@H](O)[C@H](O)[C@H]2O)c2c(c1)C(=O)c1cccc(O)c1C2=O [Chrysophanol tetraglucoside] | 228.79 ± 0.91 | 103.89 ± 1.22 | – | –
19 | COc1cccc2c1C(=O)c1c(O)cc(C)cc1C2=O [8-O-methyl chrysophanol] | – | – | – | α-glucosidase inhibitory activity (reported) [5]: α-glucosidase inhibitors
20 | Cc1cc(O)c2c(c1)C(=O)c1cc(O)cc(O)c1C2=O [Emodin, 1,6,8-trihydroxy 3-methyl anthraquinone] | 1.02 ± 0.01 | – | 13 | insulin-stimulated uptake of 2-NBDG ([3]; 3.125, 6.25, and 12.5 μM emodin, 24 h, compared to the control): significantly enhanced; PTP1B inhibition (previous reports) [4]: inhibited PTP1B; concentration without any cytotoxicity [6]: up to 12.5 µM
21 | COc1c(O[C@@H]2O[C@H](CO)[C@@H](O)[C@H](O)[C@H]2O)c(C)cc2c1C(=O)c1c(O)cccc1C2=O [Gluco-obtusifolin] | 23.77 ± 0.72 | 53.35 ± 0.44 | – | –
